{"source": "paper PMC5517430", "about": "“2,3,7,8-Tetrachlorodibenzo-p-dioxin (TCDD)-elicited effects on bile acid homeostasis: Alterations in biosynthesis, enterohepatic circulation, and microbial metabolism” (Scientific Reports, 2017)", "tested_on": "hepatic gene expression", "assay": "Hepatic RNA-Seq differential gene expression (fold change, P1(t), ED50, BMD, BMDL)", "assay_type": "in vivo, mouse", "settings": "liver", "description": "Frozen ileal epithelium scrapings and liver samples were homogenized in TRIzol (Ambion, Waltham, MA) using a Mixer Mill 300 tissue homogenizer (Retsch, Germany) and total RNA was isolated as previously described. RNA was quantified using a Nano-drop spectrophotometer (Thermo Scientific, Wilmington, DE) at 260 nm, and purity was assessed using the A260/A280 ratio and the Caliper LabChip GX (Perkin Elmer, Waltham, MA).\nDose-dependent gene expression was examined using RNA-Seq performed at the MSU Research Technology Support Facility (RTSF) Genomics Core (rtsf.natsci.msu.edu/genomics). Ileal libraries from three independent biological replicates (n = 3) were prepared using the Ovation Mouse RNA-Seq System 1–16 sample preparation kit (NuGen, San Carlos, CA), with an additional DNase step. Libraries were quantified and sequenced as previously described, using a read depth of ~30 M per sample[33], [67]. Quality was determined using FASTQC v0.11.3 and adaptor sequences were removed using Trimmomatic v0.33. Reads were mapped to the mouse reference genome (GRCm38 release 81) using Bowtie2 v2.2.6 and TopHat2 v2.1.0. Alignments were converted to SAM format using SAMTools v1.2.0. For TCDD-mediated differential gene expression, fold changes were calculated relative to vehicle controls. Hepatic RNA-Seq analysis was previously published. Genes were considered differentially expressed if |fold change| ≥ 1.5 and statistical P1(t) value ≥ 0.8 at one or more doses. RNA-Seq datasets for the ileal epithelium and liver were deposited in the Gene Expression Omnibus (GEO; accession number GSE89430 and GSE87519, respectively). The RNA-Seq results (fold changes, P1(t) values) for each gene discussed in the manuscript have been compiled in Supplementary Table S1. […] Estimation of benchmark dose (BMD) and BMD lower confidence limit (BMDL) was performed using BMDExpress[69] as previously described, and has been included in Supplementary Table S1.", "key": {"[1]": {"settings": "0.01 µg/kg TCDD, relative to vehicle control"}, "[2]": {"settings": "0.03 µg/kg TCDD, relative to vehicle control"}, "[3]": {"settings": "0.1 µg/kg TCDD, relative to vehicle control"}, "[4]": {"settings": "0.3 µg/kg TCDD, relative to vehicle control"}}}
{"smiles": "Clc1cc2c(cc1Cl)Oc1cc(Cl)c(Cl)cc1O2", "note": "[TCDD, 2,3,7,8-tetrachlorodibenzo-p-dioxin]", "values": [{"measurement": "Slc6a6 (TAUT) BMD", "value": 11.24, "unit": "µg/kg TCDD"}, {"measurement": "Slc6a6 (TAUT) BMDL", "value": 8.25, "unit": "µg/kg TCDD"}, {"measurement": "Slc6a6 (TAUT) Differentially Expressed?", "value": "YES"}, {"measurement": "Slc6a6 (TAUT) ED50", "value": 13.27, "unit": "µg/kg TCDD"}, {"measurement": "Slc10a1 (NTCP or LBAT) BMD", "value": 9.13, "unit": "µg/kg TCDD"}, {"measurement": "Slc10a1 (NTCP or LBAT) BMDL", "value": 4.73, "unit": "µg/kg TCDD"}, {"measurement": "Slc10a1 (NTCP or LBAT) Differentially Expressed?", "value": "YES"}, {"measurement": "Slc10a1 (NTCP or LBAT) ED50", "value": 14.43, "unit": "µg/kg TCDD"}, {"measurement": "Slc27a5 BMD", "value": 4.42, "unit": "µg/kg TCDD"}, {"measurement": "Slc27a5 BMDL", "value": 3.04, "unit": "µg/kg TCDD"}, {"measurement": "Slc27a5 Differentially Expressed?", "value": "YES"}, {"measurement": "Slc27a5 ED50", "value": 11.65, "unit": "µg/kg TCDD"}, {"measurement": "Slco1a1 (OATP1A1) BMD", "value": 8.64, "unit": "µg/kg TCDD"}, {"measurement": "Slco1a1 (OATP1A1) BMDL", "value": 3.68, "unit": "µg/kg TCDD"}, {"measurement": "Slco1a1 (OATP1A1) Differentially Expressed?", "value": "YES"}, {"measurement": "Slco1a1 (OATP1A1) ED50", "value": 10.06, "unit": "µg/kg TCDD"}, {"measurement": "Slco1a4 (OATP1A4) BMD", "value": 0.56, "unit": "µg/kg TCDD"}, {"measurement": "Slco1a4 (OATP1A4) BMDL", "value": 0.000105, "unit": "µg/kg TCDD"}, {"measurement": "Slco1a4 (OATP1A4) Differentially Expressed?", "value": "YES"}, {"measurement": "Slco1a4 (OATP1A4) ED50", "value": "Not sigmoidal"}, {"measurement": "Slco1b2 (OATP1B2) BMD", "value": 6.99, "unit": "µg/kg TCDD"}, {"measurement": "Slco1b2 (OATP1B2) BMDL", "value": 4.27, "unit": "µg/kg TCDD"}, {"measurement": "Slco1b2 (OATP1B2) Differentially Expressed?", "value": "YES"}, {"measurement": "Slco1b2 (OATP1B2) ED50", "value": 12.87, "unit": "µg/kg TCDD"}, {"measurement": "Slco2b1 (OATP2B1) BMD", "value": 4.52, "unit": "µg/kg TCDD"}, {"measurement": "Slco2b1 (OATP2B1) BMDL", "value": 2.69, "unit": "µg/kg TCDD"}, {"measurement": "Slco2b1 (OATP2B1) Differentially Expressed?", "value": "YES"}, {"measurement": "Slco2b1 (OATP2B1) ED50", "value": 11.16, "unit": "µg/kg TCDD"}, {"measurement": "Soat1 BMD", "value": "No model fit"}, {"measurement": "Soat1 BMDL", "value": "No model fit"}, {"measurement": "Soat1 Differentially Expressed?", "value": "YES"}, {"measurement": "Soat1 ED50", "value": 8.88, "unit": "µg/kg TCDD"}, {"measurement": "Soat2 BMD", "value": 7.18, "unit": "µg/kg TCDD"}, {"measurement": "Soat2 BMDL", "value": 5.55, "unit": "µg/kg TCDD"}, {"measurement": "Soat2 Differentially Expressed?", "value": "YES"}, {"measurement": "Soat2 ED50", "value": "Not sigmoidal"}, {"measurement": "Sqle BMD", "value": "No model fit"}, {"measurement": "Sqle BMDL", "value": "No model fit"}, {"measurement": "Sqle Differentially Expressed?", "value": "YES"}, {"measurement": "Sqle ED50", "value": 19.37, "unit": "µg/kg TCDD"}, {"measurement": "Srebf2 BMD", "value": 8.52, "unit": "µg/kg TCDD"}, {"measurement": "Srebf2 BMDL", "value": 4.75, "unit": "µg/kg TCDD"}, {"measurement": "Srebf2 Differentially Expressed?", "value": "YES"}, {"measurement": "Srebf2 ED50", "value": 15.74, "unit": "µg/kg TCDD"}, {"measurement": "Sult2a8 BMD", "value": 1.73, "unit": "µg/kg TCDD"}, {"measurement": "Sult2a8 BMDL", "value": 1.40, "unit": "µg/kg TCDD"}, {"measurement": "Sult2a8 Differentially Expressed?", "value": "YES"}, {"measurement": "Sult2a8 ED50", "value": 11.63, "unit": "µg/kg TCDD"}, {"measurement": "Tm7sf2 BMD", "value": 14.47, "unit": "µg/kg TCDD"}, {"measurement": "Tm7sf2 BMDL", "value": 11.85, "unit": "µg/kg TCDD"}, {"measurement": "Tm7sf2 Differentially Expressed?", "value": "YES"}, {"measurement": "Tm7sf2 ED50", "value": 17.41, "unit": "µg/kg TCDD"}, {"measurement": "Slc6a6 (TAUT) FC_0.01", "setting": "[1]", "value": 0.98}, {"measurement": "Slc10a1 (NTCP or LBAT) FC_0.01", "setting": "[1]", "value": 1.06}, {"measurement": "Slc27a5 FC_0.01", "setting": "[1]", "value": 0.96}, {"measurement": "Slco1a1 (OATP1A1) FC_0.01", "setting": "[1]", "value": 1.85}, {"measurement": "Slco1a4 (OATP1A4) FC_0.01", "setting": "[1]", "value": 0.83}, {"measurement": "Slco1b2 (OATP1B2) FC_0.01", "setting": "[1]", "value": 0.99}, {"measurement": "Slco2b1 (OATP2B1) FC_0.01", "setting": "[1]", "value": 1.02}, {"measurement": "Soat1 FC_0.01", "setting": "[1]", "value": 0.61}, {"measurement": "Soat2 FC_0.01", "setting": "[1]", "value": 1.08}, {"measurement": "Sqle FC_0.01", "setting": "[1]", "value": 1.57}, {"measurement": "Srebf2 FC_0.01", "setting": "[1]", "value": 1.04}, {"measurement": "Sult2a8 FC_0.01", "setting": "[1]", "value": 1.07}, {"measurement": "Tm7sf2 FC_0.01", "setting": "[1]", "value": 1.06}, {"measurement": "Slc6a6 (TAUT) FC_0.03", "setting": "[2]", "value": 0.99}, {"measurement": "Slc10a1 (NTCP or LBAT) FC_0.03", "setting": "[2]", "value": 1.13}, {"measurement": "Slc27a5 FC_0.03", "setting": "[2]", "value": 0.89}, {"measurement": "Slco1a1 (OATP1A1) FC_0.03", "setting": "[2]", "value": 1.27}, {"measurement": "Slco1a4 (OATP1A4) FC_0.03", "setting": "[2]", "value": 0.81}, {"measurement": "Slco1b2 (OATP1B2) FC_0.03", "setting": "[2]", "value": 1.11}, {"measurement": "Slco2b1 (OATP2B1) FC_0.03", "setting": "[2]", "value": 0.97}, {"measurement": "Soat1 FC_0.03", "setting": "[2]", "value": 0.71}, {"measurement": "Soat2 FC_0.03", "setting": "[2]", "value": 1.02}, {"measurement": "Sqle FC_0.03", "setting": "[2]", "value": 1.40}, {"measurement": "Srebf2 FC_0.03", "setting": "[2]", "value": 1.10}, {"measurement": "Sult2a8 FC_0.03", "setting": "[2]", "value": 1.00}, {"measurement": "Tm7sf2 FC_0.03", "setting": "[2]", "value": 0.92}, {"measurement": "Slc6a6 (TAUT) FC_0.1", "setting": "[3]", "value": 1.04}, {"measurement": "Slc10a1 (NTCP or LBAT) FC_0.1", "setting": "[3]", "value": 0.87}, {"measurement": "Slc27a5 FC_0.1", "setting": "[3]", "value": 0.83}, {"measurement": "Slco1a1 (OATP1A1) FC_0.1", "setting": "[3]", "value": 0.82}, {"measurement": "Slco1a4 (OATP1A4) FC_0.1", "setting": "[3]", "value": 0.42}, {"measurement": "Slco1b2 (OATP1B2) FC_0.1", "setting": "[3]", "value": 1.02}, {"measurement": "Slco2b1 (OATP2B1) FC_0.1", "setting": "[3]", "value": 0.91}, {"measurement": "Soat1 FC_0.1", "setting": "[3]", "value": 1.03}, {"measurement": "Soat2 FC_0.1", "setting": "[3]", "value": 1.01}, {"measurement": "Sqle FC_0.1", "setting": "[3]", "value": 1.57}, {"measurement": "Srebf2 FC_0.1", "setting": "[3]", "value": 1.00}, {"measurement": "Sult2a8 FC_0.1", "setting": "[3]", "value": 0.89}, {"measurement": "Tm7sf2 FC_0.1", "setting": "[3]", "value": 0.82}, {"measurement": "Slc6a6 (TAUT) FC_0.3", "setting": "[4]", "value": 1.15}, {"measurement": "Slc10a1 (NTCP or LBAT) FC_0.3", "setting": "[4]", "value": 1.02}, {"measurement": "Slc27a5 FC_0.3", "setting": "[4]", "value": 0.88}, {"measurement": "Slco1a1 (OATP1A1) FC_0.3", "setting": "[4]", "value": 1.03}, {"measurement": "Slco1a4 (OATP1A4) FC_0.3", "setting": "[4]", "value": 0.87}]}
